Legend:
human FAK = target: T1, human FAK (Homo sapiens, UniProt Q05397); assay: FAK autophosphorylation inhibition, time resolved fluorescence (HTRF) assay; format: biochemical; details: for inhibition at 30 µM: 30 μM (values marked *), read-out: FAK % inhib at 30* μM; for inhibition at 10 µM: 10 μM (values without asterisk), read-out: FAK % inhib at 10 μM
T1 construct: The complete cDNA of human FAK; made in house; host or cells: baculovirus expression system (vector pFastBac HTc)
Outline: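 His-tagged full-length human FAK from baculovirus (6.6 µg/ml) self-phosphorylates with 15 µM ATP in HEPES pH 7.2, MgCl2, vanadate, 1 h at 37 °C. HTRF detection (Eu-anti-phosphotyrosine / XL665-anti-His), 665/620 nm ratio; % inhibition vs untreated control, duplicate mean.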

human KDR enzyme = target: T2, human KDR enzyme (Homo sapiens, UniProt P35968); assay: KDR substrate (PLCγ) phosphorylation, scintillation assay; format: biochemical; details: 10 μM; read-out: KDR % inhib at 10 μM
T2 construct: The cytoplasmic domain of the human KDR enzyme; GST; made in house; host or cells: SF21 insect cells (baculovirus)
T2 sequence (P35968 786-1356 limits assumed): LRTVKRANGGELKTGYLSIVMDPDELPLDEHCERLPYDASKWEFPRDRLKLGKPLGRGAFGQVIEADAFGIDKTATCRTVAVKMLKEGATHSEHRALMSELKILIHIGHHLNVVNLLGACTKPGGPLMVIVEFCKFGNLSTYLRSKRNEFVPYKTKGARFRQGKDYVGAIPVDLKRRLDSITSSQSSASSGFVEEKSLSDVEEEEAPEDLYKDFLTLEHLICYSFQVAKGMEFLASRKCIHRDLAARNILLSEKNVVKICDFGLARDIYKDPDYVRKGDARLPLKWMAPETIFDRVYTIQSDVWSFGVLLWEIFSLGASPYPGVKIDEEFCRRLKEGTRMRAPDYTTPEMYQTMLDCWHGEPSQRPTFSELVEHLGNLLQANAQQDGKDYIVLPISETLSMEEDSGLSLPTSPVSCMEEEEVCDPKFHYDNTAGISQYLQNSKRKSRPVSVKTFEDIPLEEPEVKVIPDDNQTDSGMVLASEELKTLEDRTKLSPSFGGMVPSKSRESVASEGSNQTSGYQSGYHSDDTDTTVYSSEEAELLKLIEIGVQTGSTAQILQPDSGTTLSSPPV
Outline: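 GST-fused human KDR cytoplasmic domain from SF21 cells (about 60% pure, 100 ng) phosphorylated 2 μg of GST-PLCγ SH2-SH3 fragment. The trigger solution held γ33P-ATP with 2 μM cold ATP, in MOPS buffer pH 7.2 with Mg2+, Mn2+, vanadate and NaF. Reactions ran 1 h at 37 °C, were stopped with EDTA and counted by scintillation; results are % inhibition versus the no-compound control.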

Aurora2 kinase = target: T3, Aurora2 kinase (Homo sapiens, UniProt O14965); assay: Aurora2 kinase radioactivity scintillation assay using nickel chelate (NuMA substrate); format: biochemical; details: 10 μM; read-out: Aurora2 % inhib at 10 μM
T3 construct: A complete recombinant Aurora2 enzyme; His tag (N); made in house; host or cells: E. coli
T3 sequence (O14965 1-403): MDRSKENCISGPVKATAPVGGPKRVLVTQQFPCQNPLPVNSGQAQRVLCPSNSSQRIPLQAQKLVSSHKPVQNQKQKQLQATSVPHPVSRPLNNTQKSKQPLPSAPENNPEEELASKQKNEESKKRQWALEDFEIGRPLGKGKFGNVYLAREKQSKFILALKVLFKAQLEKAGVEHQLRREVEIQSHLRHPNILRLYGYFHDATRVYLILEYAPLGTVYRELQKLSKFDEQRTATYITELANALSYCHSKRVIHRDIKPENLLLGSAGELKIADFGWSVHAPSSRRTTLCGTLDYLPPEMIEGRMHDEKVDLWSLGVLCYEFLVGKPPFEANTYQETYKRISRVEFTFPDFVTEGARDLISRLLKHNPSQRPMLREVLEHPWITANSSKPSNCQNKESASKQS
Outline: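 His-tagged full-length Aurora2 (0.02 μM, E. coli) phosphorylating His-tagged NuMA C-terminal fragment (0.5 μM) with 1 μM ATP plus [33P]-ATP, 30 min at 37 °C, pH 7.5 Tris buffer with MgCl2. Nickel-chelate scintillation read; percent inhibition versus no-compound control.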

T1 sequence (Q05397 whole entry): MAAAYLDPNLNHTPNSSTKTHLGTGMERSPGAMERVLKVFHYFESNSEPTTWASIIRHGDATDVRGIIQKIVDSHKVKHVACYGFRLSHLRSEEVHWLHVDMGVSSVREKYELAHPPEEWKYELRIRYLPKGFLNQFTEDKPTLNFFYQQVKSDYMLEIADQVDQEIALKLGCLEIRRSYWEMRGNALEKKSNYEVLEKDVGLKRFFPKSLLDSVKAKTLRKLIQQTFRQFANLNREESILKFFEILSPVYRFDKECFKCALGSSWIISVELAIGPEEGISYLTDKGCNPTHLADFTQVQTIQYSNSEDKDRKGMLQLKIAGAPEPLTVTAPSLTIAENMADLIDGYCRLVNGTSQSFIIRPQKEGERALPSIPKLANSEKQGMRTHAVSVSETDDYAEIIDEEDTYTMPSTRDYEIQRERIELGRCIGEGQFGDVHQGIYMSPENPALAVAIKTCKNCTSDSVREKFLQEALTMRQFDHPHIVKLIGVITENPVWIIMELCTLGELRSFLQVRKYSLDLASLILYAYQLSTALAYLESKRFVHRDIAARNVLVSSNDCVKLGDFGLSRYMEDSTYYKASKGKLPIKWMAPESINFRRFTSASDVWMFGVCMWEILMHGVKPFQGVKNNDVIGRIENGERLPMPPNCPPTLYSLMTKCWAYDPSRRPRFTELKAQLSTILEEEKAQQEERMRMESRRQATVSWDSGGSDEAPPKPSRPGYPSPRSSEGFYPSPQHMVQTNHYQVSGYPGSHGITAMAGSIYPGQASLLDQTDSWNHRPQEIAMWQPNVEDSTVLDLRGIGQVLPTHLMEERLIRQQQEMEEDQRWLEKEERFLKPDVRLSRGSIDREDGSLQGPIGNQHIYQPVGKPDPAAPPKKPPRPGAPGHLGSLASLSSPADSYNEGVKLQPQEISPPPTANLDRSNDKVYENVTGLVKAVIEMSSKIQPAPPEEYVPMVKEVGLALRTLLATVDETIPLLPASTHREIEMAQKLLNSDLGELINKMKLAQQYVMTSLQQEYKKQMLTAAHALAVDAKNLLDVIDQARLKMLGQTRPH

inhibition at 30 µM (human FAK) | inhibition at 10 µM (human KDR enzyme) | melting point | inhibition at 10 µM (human FAK) | inhibition at 10 µM (Aurora2 kinase) | Structure (SMILES)
85% | 24% | 227 °C | – | – | N#Cc1n[nH]c2ccc(NS(=O)(=O)c3cccc(F)c3)cc12 [Example 4, N-(3-Cyano-1H-indazol-5-yl)-3-fluorobenzenesulfonamide]
– | 18% | 258 °C | 89% | 97% | CS(=O)(=O)c1ccccc1S(=O)(=O)Nc1ccc2[nH]nc(C(=O)Nc3ccccc3)c2c1 [Example 18, N-Phenyl-5-(2-methylsulfonylbenzenesulfonylamino)-1H-indazole-3-carboxamide]
– | 36% | 215 °C | 73% | 93% | CS(=O)(=O)c1ccccc1S(=O)(=O)Nc1ccc2[nH]nc(CCc3ccc(Cl)cc3)c2c1 [Example 77, N-{3-[2-(4-Chlorophenyl)ethyl]-1H-indazol-5-yl}-2-methylsulfonylbenzenesulfonamide]
– | 32% | 170 °C | 66% | 89% | CS(=O)(=O)c1ccccc1S(=O)(=O)Nc1ccc2[nH]nc(/C=C/C(=O)O)c2c1.Cl [Example 80, (E)-3-[5(2-Methylsulfonylbenzenesulfonylamino)-1H-indazol-3-yl]-acrylic acid]
– | 98% | 172 °C | 75% | 90% | COc1ccc(-c2n[nH]c3ccc(NS(=O)(=O)c4ccccc4)cc23)cc1 [Example 31, N-[3-(4-Methoxyphenyl)-1H-indazol-5-yl]benzenesulfonamide]
38% | 11% | 184 °C | – | 50% | Cc1n[nH]c2ccc(NS(=O)(=O)c3ccc(Cl)c(Cl)c3)cc12 [Example 25, 3,4-Dichloro-N-(3-methyl-1H-indazol-5-yl)benzenesulfonamide]
– | – | 209 °C | 42% | – | O=S(=O)(Nc1ccc2[nH]ncc2c1)c1ccc(Cl)c(Cl)c1 [Example 14, 3,4-Dichloro-N-(1H-indazol-5-yl)benzenesulfonamide]
– | 10% | 179 °C | 76% | 60% | O=S(=O)(Nc1ccc2[nH]ncc2c1)c1ccccc1 [Example 24, N-(1H-Indazol-5-yl)benzenesulfonamide]
– | – | 225 °C | 93% | 99% | O=C(Nc1n[nH]c2ccc(NS(=O)(=O)c3cccc(F)c3)cc12)c1ccccc1 [Example 23, N-[5-(3-Fluorobenzenesulfonylamino)-1H-indazol-3-yl]benzamide]
– | 35% | 234 °C | 82% | 87% | CS(=O)(=O)c1ccccc1S(=O)(=O)Nc1ccc2[nH]nc(CCc3ccc(F)cc3)c2c1 [Example 75, N-{3-[2-(4-Fluorophenyl)ethyl]-1H-indazol-5-yl}-2-methylsulfonylbenzenesulfonamide]
– | 46% | 160 °C | 44% | 79% | O=S(=O)(Nc1ccc2[nH]nc(-c3ccccc3)c2c1)C1CCCCC1 [Example 99, N-(3-Phenyl-1H-indazol-5-yl)cyclohexanesulfonamide]
– | 9% | 245 °C | 5% | 42% | CC(=O)Nc1ccccc1-c1n[nH]c2ccc(NS(=O)(=O)c3ccccc3S(C)(=O)=O)cc12 [Example 48, N-{2-[5-(2-Methylsulfonylbenzenesulfonylamino)-1H-indazol-3-yl]phenyl}acetamide]
– | 55% | 249 °C | 90% | 88% | CS(=O)(=O)c1ccccc1S(=O)(=O)Nc1ccc2[nH]nc(-c3ccsc3)c2c1 [Example 51, 2-Methylsulfonyl-N-(3-thiophen-3-yl-1H-indazol-5-yl)benzenesulfonamide]

Source: patent US6858638B2, “Substituted indazoles, compositions containing them, method of production and use” (Aventis Pharma S.A., priority 2002, dated 2005)
